# Assay results taken from publication PMC8279013 (Toxicology letters, 2020).
# Target: T1, pregnane X receptor (PXR) (Homo sapiens, UniProt O75469)
# T1 sequence (O75469 1-434): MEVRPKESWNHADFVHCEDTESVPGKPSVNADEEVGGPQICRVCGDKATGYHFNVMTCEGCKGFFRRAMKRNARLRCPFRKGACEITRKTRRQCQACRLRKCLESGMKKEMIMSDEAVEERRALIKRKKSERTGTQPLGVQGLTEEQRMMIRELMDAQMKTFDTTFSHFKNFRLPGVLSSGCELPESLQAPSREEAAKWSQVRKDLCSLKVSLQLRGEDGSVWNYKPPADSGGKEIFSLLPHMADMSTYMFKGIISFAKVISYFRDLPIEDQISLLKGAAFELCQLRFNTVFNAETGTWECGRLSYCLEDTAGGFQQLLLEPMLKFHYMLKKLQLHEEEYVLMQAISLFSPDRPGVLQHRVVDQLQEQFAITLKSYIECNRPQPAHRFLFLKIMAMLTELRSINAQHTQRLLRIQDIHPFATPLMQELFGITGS
# Assay: PXR element luciferase reporter, RIF-stimulated, stable hPXR-HRE cells
# Assay type: cell-based
smiles,measurement,value
CC(=O)N1CCN(c2ccc(OC[C@H]3CO[C@](Cn4ccnc4)(c4ccc(Cl)cc4Cl)O3)cc2)CC1 (racemic) [ketoconazole],IC50,22.4 µM
